According to patent US11884660B2, “Substituted oxopyridine derivative” (Bayer Pharma Aktiengesellschaft, priority 2018, dated 2024):
Counter-ions that a name gives are not always drawn.

Legend:
human plasma kallikrein = human plasma kallikrein (Homo sapiens (Human), UniProt P03952); assay: Determination of the plasma kallikrein activity (fluorogenic substrate H-Pro-Phe-Arg-AMC); type: biochemical; details: human plasma kallikrein 0.6 nM; 15 min preincubation; 30 min at 22° C.; some as mean values from multiple determinations
Sequence of human plasma kallikrein (P03952 391-638): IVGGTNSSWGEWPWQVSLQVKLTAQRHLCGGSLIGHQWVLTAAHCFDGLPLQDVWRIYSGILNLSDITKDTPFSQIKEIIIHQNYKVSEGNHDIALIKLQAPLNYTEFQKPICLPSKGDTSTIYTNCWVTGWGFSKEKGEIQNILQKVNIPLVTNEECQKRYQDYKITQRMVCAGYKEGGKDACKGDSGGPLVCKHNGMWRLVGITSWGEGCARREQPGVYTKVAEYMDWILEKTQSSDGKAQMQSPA
Sequence of human plasma kallikrein (P03952 20-390 partner): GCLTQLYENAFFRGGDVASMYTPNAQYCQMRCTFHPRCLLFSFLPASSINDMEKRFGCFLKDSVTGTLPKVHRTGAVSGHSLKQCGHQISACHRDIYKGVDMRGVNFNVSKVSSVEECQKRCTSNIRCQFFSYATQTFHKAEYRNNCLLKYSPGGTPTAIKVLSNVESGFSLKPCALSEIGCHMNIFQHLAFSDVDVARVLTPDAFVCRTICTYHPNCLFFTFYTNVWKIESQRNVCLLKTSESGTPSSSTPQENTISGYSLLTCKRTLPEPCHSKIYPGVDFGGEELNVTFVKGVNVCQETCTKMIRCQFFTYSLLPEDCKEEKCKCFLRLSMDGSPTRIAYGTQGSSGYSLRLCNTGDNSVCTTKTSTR
Description: a.1) Determination of the Plasma Kallikrein Activity
(§1) To determine the plasma kallikrein inhibition of the substances according to the invention, a biochemical test system is used which utilizes the reaction of a peptidic plasma kallikrein substrate to determine the enzymatic activity of human plasma kallikrein. Here, plasma kallikrein cleaves from the peptic plasma kallikrein substrate the C-terminal aminomethylcoumarin (AMC), the fluorescence of which is measured. The determinations are carried out in microtitre plates.
Test substances are dissolved in dimethyl sulphoxide and serially diluted in dimethyl sulphoxide (3000 μM to 0.0078 μM; resulting final concentrations in the test: 50 μM to 0.00013 μM). In each case 1 μl of the diluted substance solutions is placed into the wells of white microtitre plates from Greiner (384 wells). 20 μl of assay buffer (50 mM Tris/HCl pH 7.4; 100 mM sodium chloride solution; 5 mM of calcium chloride solution; 0.1% of bovine serum albumin) and 20 μl of plasma kallikrein from Kordia (0.6 nM in assay buffer) are then added successively. After 15 min of incubation, the enzyme reaction is started by addition of 20 μl of the substrate H-Pro-Phe-Arg-AMC dissolved in assay buffer (10 μM in assay buffer) from Bachem, the mixture is incubated at room temperature (22° C.) for 30 min and fluorescence is then measured (excitation: 360 nm, emission: 460 nm). The measured emissions of the test batches with test substance are compared to those of control batches without test substance (only dimethyl sulphoxide instead of test substance in dimethyl sulphoxide), and IC50 values are calculated from the concentration/activity relationships. Activity data from this test are listed in Table A below (some as mean values from multiple independent individual determinations): […]

human factor XIa = human factor XIa (Homo sapiens (Human), UniProt P03951); assay: Measurement of FXIa inhibition (fluorogenic substrate Boc-Glu(OBzl)-Ala-Arg-AMC); type: biochemical; details: human factor XIa 0.45 nM; 15 min preincubation; 30 min at 22° C.; some as mean values from multiple determinations
Sequence of human factor XIa (P03951 388-625): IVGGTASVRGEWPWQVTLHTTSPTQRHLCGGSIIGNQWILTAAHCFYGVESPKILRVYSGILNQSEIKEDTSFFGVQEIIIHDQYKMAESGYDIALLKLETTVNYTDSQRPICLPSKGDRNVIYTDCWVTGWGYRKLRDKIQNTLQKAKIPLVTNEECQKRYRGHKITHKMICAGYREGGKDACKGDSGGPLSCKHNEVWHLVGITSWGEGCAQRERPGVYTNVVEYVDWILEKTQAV
Sequence of human factor XIa (P03951 19-387 partner): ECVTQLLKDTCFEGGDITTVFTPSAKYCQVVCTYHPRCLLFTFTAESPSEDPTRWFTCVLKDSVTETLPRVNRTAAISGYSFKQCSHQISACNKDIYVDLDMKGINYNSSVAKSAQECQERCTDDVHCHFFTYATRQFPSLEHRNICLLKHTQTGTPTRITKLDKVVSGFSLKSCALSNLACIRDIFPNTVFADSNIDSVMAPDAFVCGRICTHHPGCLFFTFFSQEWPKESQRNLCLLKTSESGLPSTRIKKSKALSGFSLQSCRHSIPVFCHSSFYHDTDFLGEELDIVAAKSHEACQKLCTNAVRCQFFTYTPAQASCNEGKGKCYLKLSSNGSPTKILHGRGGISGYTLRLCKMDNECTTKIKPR
Description: a.2) Measurement of FXIa Inhibition
as §1, with “The factor XIa” for “To determine the plasma kallikrein”, “invention is determined using” for “invention,”, “system” for “system is used”, “factor XIa” for “plasma kallikrein”, “factor XIa.” for “plasma kallikrein.”
Test substances are dissolved in dimethyl sulphoxide and serially diluted in dimethyl sulphoxide (3000 μM to 0.0078 μM; resulting final concentrations in the test: 50 μM to 0.00013 μM). In each case 1 μl of the diluted substance solutions is placed into the wells of white microtitre plates from Greiner (384 wells). 20 μl of assay buffer (50 mM of Tris/HCl pH 7.4; 100 mM of sodium chloride; 5 mM of calcium chloride; 0.1% of bovine serum albumin) and 20 μl of factor XIa from Kordia (0.45 nM in assay buffer) are then added successively. After 15 min of incubation, the enzyme reaction is started by addition of 20 μl of the factor XIa substrate Boc-Glu(OBzl)-Ala-Arg-AMC dissolved in assay buffer (10 μM in assay buffer) from Bachem, the mixture is incubated at room temperature (22° C.) for 30 min and fluorescence is then measured (excitation: 360 nm, emission: 460 nm). The measured emissions of the test batches with test substance are compared to those of control batches without test substance (only dimethyl sulphoxide instead of test substance in dimethyl sulphoxide), and IC50 values are calculated from the concentration/activity relationships. Activity data from this test are listed in Table B below (some as mean values from multiple independent individual determinations): […]

Structure (SMILES) | IC50 (human plasma kallikrein) | IC50 (human factor XIa)
COc1cn(C(C(=O)Nc2ccn3ncc(C(N)=O)c3c2)C(C)CCCN)c(=O)cc1-c1cc(Cl)ccc1C#N (racemic) [Example 1, 5-({6-Amino-2-[4-(5-chloro-2-cyanophenyl)-5-methoxy-2-oxopyridin-1(2H)-yl]-3-methyl-hexanoyl}amino)pyrazolo[1,5-a]pyridine-3-carboxamidetrifluoroacetate] | 5.6 nM | > 10000 nM
COc1cn([C@H](C(=O)Nc2ccn3ncc(C(N)=O)c3c2)C(C)CCCN)c(=O)cc1-c1cc(Cl)ccc1C#N (single isomer, unassigned) [Example 2, trifluoroacetate] | 1.8 nM | > 2000 nM
COc1cn([C@H](C(=O)Nc2ccn3ncc(C(N)=O)c3c2)C(C)CCCN)c(=O)cc1-c1cc(Cl)ccc1C#N (single isomer, unassigned) [Example 3, trifluoroacetate] | 2.1 nM | > 2000 nM
